# Source: EP0336958B1, “PRODUCT CONTAINING AS ACTIVE PRINCIPLES: A) A PEPTIDE HAVING AN ACTIVITY OF THE TYPE OF THAT OF HUMAN GAMMA INTERFERON, B) HYDROXYUREA” (priority 1987, dated 1989)
# Tested on: cellules HL-60
# Conditions: hydroxyurée alone, 150 uM
smiles,measurement,value
NC(=O)NO [hydroxyurée],inhibition de la croissance des cellules HL-60,inhibition suffisante de la croissance des cellules HL-60
